Values quoted from earlier work in patent US20150246043A1, “ORAL DOSAGE FORMS FOR MODIFIED RELEASE COMPRISING RUXOLITINIB” (ratiopharm GmbH, priority 2012, published 2015).

Assays:
[1] = reported for Ruxolitinib and especially its pharmaceutically acceptable salts like the phosphate salt (WO 2008/157208)
[2] = class I = high permeability, high solubility

aqueous solubility [1]: very high
Biopharmaceutics Classification System class [2]: class I
Compound: N#CC[C@H](C1CCCC1)n1cc(-c2ncnc3[nH]ccc23)cn1 [Ruxolitinib, (3R)-3-cyclopentyl-3-[4-(7H-pyrrolo[2,3-d]pyrimidin-4-yl)pyrazol-1-yl]propanenitrile]
